Tests used:
[1] = biological target: T1, Muscarinic acetylcholine receptor M1 (Homo sapiens, UniProt P11229); format: functional, cell-based
T1 sequence (P11229 whole entry): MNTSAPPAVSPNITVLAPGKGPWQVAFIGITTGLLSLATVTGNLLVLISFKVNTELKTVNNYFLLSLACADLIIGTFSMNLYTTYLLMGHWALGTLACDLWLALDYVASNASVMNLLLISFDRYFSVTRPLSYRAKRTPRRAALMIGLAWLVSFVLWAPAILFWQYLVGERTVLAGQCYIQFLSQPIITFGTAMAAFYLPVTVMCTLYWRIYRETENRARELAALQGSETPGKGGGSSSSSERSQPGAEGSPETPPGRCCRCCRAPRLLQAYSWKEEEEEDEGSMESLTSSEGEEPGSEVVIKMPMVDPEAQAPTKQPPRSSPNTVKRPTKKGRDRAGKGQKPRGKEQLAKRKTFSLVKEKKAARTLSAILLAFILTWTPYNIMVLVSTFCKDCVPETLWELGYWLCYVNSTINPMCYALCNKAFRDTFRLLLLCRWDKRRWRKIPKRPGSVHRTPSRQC

[2] = biological target: T1, Muscarinic acetylcholine receptor M1; format: functional, cell-based; remark: listed apart in the source
[3] = biological target: 5-hydroxytryptamine receptor 2B (Homo sapiens, UniProt P41595)
Sequence of 5-hydroxytryptamine receptor 2B (P41595 whole entry): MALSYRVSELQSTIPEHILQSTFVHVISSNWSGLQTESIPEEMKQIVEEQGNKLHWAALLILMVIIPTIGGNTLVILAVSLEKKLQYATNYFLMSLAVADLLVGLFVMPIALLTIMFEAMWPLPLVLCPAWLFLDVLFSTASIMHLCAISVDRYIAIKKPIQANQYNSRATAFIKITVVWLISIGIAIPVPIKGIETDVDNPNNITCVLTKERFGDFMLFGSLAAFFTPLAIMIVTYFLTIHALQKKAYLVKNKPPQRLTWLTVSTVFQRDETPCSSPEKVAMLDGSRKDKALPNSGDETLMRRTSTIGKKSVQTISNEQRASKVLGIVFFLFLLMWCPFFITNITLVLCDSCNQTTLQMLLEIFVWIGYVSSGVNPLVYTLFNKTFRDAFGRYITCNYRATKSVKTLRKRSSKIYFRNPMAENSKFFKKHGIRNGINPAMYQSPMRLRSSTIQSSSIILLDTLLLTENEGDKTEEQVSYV

[4] = biological target: T2, Prostaglandin G/H synthase 1 (Rattus norvegicus, UniProt Q63921); format: functional
T2 sequence (Q63921 whole entry): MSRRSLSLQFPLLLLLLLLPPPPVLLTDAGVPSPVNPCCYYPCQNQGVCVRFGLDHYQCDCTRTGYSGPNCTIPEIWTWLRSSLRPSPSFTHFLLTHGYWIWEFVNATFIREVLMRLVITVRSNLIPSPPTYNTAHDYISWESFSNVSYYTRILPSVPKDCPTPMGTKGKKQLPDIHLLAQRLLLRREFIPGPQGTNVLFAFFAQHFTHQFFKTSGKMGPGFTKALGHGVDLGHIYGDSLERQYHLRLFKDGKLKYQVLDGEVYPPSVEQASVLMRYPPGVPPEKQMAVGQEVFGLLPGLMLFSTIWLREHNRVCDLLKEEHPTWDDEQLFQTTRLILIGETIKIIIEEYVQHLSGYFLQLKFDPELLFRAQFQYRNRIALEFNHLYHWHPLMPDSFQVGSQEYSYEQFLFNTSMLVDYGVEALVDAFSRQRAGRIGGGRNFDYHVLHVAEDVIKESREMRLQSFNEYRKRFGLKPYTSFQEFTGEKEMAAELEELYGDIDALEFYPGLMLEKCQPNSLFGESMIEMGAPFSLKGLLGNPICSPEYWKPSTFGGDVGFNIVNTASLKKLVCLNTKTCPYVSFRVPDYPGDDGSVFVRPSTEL

D(1A) dopamine receptor = D(1A) dopamine receptor (Homo sapiens, UniProt P21728)
Sequence of D(1A) dopamine receptor (P21728 whole entry): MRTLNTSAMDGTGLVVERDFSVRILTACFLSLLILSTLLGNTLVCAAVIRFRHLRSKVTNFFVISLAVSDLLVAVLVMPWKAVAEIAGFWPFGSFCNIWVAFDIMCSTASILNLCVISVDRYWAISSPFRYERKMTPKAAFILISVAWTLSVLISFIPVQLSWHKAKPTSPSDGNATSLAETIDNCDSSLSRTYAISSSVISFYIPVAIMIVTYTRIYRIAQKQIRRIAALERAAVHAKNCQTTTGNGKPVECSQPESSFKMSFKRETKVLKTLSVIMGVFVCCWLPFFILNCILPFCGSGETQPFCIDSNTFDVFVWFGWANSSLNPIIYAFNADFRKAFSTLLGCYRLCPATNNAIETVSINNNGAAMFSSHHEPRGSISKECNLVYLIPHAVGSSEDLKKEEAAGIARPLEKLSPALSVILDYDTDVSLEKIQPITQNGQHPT

[5] = biological target: Voltage-dependent L-type calcium channel subunit alpha-1C (Homo sapiens, UniProt Q13936); format: functional, cell-based
Sequence of Voltage-dependent L-type calcium channel subunit alpha-1C (Q13936 whole entry): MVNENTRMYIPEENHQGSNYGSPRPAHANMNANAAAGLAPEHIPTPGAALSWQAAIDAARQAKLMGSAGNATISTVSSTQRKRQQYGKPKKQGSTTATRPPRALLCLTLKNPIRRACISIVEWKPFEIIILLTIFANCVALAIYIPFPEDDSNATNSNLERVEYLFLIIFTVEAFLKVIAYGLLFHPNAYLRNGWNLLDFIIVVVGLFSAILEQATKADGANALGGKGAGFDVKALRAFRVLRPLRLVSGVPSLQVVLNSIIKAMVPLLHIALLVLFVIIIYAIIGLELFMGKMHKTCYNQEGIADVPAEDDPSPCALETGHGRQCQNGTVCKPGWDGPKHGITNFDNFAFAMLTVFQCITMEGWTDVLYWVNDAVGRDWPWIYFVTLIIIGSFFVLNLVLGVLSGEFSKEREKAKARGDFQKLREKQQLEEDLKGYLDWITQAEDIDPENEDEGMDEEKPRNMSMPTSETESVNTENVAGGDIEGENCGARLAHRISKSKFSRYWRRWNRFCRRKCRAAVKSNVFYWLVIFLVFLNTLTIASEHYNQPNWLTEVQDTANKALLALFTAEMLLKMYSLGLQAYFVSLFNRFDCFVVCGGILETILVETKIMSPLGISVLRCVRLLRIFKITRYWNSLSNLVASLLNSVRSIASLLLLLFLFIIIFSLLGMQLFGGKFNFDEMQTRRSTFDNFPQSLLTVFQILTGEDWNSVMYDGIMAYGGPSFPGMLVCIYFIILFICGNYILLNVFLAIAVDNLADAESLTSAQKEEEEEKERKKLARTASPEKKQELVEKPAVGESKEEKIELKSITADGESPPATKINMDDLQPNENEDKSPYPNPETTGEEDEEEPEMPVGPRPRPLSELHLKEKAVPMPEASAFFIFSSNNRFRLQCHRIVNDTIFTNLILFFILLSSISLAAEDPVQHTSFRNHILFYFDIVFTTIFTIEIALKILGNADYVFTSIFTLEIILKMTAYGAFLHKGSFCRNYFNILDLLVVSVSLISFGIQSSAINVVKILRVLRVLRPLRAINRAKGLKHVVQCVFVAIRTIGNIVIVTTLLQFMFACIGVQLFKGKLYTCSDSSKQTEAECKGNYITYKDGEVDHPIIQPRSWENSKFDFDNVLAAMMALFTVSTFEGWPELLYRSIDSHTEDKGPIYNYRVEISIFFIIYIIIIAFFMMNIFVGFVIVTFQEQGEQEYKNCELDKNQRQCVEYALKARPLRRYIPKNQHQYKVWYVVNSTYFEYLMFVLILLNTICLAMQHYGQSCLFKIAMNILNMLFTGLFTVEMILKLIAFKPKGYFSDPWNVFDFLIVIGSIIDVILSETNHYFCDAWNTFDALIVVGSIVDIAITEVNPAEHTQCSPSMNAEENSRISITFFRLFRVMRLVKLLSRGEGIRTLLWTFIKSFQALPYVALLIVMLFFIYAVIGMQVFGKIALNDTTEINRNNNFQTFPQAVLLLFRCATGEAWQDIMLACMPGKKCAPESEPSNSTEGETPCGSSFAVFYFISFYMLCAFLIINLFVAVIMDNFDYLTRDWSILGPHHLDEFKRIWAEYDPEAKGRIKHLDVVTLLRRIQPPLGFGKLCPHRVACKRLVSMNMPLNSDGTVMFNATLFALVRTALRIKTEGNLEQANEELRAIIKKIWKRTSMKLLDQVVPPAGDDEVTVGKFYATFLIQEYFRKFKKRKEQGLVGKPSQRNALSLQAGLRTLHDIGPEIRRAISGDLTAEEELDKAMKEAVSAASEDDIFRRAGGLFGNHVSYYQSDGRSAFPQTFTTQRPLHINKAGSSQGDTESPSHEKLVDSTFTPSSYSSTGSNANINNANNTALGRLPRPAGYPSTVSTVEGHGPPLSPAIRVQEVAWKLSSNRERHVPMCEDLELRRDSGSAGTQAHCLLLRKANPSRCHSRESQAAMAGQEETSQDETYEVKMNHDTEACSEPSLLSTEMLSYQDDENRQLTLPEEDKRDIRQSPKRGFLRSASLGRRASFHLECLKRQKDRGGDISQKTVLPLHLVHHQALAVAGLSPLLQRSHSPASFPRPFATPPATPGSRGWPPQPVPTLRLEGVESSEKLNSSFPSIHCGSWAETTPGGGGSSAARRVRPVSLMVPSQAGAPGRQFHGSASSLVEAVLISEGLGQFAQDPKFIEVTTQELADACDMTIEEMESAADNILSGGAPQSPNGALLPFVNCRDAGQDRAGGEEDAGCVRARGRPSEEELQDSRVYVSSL

Estrogen receptor [6] = biological target: T3, Estrogen receptor (Homo sapiens, UniProt P03372); format: functional
T3 sequence (P03372 whole entry): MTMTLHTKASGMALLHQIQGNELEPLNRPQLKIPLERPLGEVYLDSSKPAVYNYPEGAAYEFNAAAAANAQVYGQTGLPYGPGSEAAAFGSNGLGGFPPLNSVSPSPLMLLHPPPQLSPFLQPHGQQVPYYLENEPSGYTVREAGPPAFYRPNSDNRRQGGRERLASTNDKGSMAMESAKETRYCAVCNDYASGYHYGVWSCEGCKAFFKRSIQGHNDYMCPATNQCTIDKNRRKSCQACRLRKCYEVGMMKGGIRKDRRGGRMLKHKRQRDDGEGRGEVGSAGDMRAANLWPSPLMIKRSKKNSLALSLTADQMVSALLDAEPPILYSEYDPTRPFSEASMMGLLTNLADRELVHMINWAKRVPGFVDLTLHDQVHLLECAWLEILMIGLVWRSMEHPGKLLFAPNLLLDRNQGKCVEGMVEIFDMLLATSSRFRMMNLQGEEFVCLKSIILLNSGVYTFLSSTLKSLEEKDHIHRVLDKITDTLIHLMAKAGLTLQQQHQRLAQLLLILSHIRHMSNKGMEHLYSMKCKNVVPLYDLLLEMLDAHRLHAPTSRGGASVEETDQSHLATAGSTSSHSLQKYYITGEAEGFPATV

[7] = biological target: Vascular endothelial growth factor receptor 2 (Homo sapiens, UniProt P35968); format: functional
Sequence of Vascular endothelial growth factor receptor 2 (P35968 whole entry): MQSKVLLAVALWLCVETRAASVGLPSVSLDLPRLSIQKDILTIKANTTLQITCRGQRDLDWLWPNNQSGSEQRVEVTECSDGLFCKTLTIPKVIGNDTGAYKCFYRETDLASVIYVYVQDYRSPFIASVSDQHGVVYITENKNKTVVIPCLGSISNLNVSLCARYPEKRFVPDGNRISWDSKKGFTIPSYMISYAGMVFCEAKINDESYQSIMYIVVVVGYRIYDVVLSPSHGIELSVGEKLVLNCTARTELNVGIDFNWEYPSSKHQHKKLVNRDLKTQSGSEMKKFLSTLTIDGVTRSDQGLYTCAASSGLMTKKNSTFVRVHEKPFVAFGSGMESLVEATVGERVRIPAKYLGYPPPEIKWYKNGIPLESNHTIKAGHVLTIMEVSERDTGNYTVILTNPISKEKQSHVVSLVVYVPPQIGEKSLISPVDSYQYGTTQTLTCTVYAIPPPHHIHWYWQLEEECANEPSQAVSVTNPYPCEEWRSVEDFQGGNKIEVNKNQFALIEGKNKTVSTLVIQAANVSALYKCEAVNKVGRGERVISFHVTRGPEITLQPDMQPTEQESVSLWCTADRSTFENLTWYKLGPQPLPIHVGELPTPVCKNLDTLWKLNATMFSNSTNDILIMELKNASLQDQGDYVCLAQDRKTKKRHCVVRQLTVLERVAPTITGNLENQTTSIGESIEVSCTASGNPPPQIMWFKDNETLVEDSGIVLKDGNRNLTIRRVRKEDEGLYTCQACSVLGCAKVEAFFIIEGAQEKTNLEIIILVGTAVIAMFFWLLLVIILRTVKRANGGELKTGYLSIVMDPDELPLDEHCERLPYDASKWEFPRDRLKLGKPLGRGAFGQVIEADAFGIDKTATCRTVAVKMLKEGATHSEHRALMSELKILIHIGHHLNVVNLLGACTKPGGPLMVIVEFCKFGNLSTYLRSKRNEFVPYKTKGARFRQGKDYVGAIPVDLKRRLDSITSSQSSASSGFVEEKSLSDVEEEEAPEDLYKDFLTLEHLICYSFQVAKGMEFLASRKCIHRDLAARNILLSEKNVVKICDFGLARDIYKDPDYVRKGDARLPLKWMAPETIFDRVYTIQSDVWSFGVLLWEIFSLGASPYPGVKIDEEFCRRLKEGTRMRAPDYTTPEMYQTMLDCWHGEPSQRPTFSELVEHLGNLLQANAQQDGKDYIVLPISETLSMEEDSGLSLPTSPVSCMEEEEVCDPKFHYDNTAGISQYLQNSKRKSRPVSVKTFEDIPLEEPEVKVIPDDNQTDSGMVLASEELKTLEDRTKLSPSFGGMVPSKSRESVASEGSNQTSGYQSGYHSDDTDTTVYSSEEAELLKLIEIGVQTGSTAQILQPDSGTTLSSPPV

Thromboxane A2 receptor [8] = biological target: T4, Thromboxane A2 receptor (Homo sapiens, UniProt P21731); format: functional, cell-based
T4 sequence (P21731 whole entry): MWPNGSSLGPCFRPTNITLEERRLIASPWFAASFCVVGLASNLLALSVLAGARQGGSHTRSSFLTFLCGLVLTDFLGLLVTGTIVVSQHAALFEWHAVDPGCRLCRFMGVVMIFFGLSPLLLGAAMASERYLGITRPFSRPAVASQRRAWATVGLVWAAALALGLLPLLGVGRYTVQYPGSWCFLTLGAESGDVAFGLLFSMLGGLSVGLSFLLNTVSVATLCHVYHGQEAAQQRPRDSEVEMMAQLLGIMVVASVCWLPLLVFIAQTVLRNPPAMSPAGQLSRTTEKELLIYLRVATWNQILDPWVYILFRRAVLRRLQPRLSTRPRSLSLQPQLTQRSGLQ

[9] = biological target: Epidermal growth factor receptor (Homo sapiens, UniProt P00533); format: functional
Thromboxane A2 receptor [10] = biological target: T4, Thromboxane A2 receptor; format: functional
Estrogen receptor [11] = biological target: T3, Estrogen receptor; format: functional; remark: listed apart in the source
Further: assay procedure not described here.

C[N+]1(C)CCC(=C(c2ccccc2)c2ccccc2)CC1
AC50 [1]: 0.12 µM
AC50 [2]: > 30 µM

CC(Cc1cccc(C(F)(F)F)c1)NCCOC(=O)c1ccccc1 (stereo not drawn) [BENFLUOREX]
AC50 [3]: 0.933 µM

CC(O)(CS(=O)(=O)c1ccc(F)cc1)C(=O)Nc1ccc(C#N)c(C(F)(F)F)c1 (stereo not drawn) [BICALUTAMIDE]
AC50 [4]: > 30 µM

CC(=O)O[C@]1(C(C)=O)CC[C@H]2[C@@H]3C=C(Cl)C4=CC(=O)[C@@H]5C[C@@H]5[C@]4(C)[C@H]3CC[C@@]21C [CYPROTERONE ACETATE]
AC50 [4]: > 30 µM

CNCCc1ccc(OC(=O)C(C)C)c(OC(=O)C(C)C)c1 [IBOPAMINE]
AC50 (D(1A) dopamine receptor): > 30 µM

Cc1cccc(C)c1NC(=O)CC12CCCN1CCC2 [PILSICAINIDE]
AC50 [5]: > 50 µM

CC(C)c1cccc(C(C)C)c1O [PROPOFOL]
AC50 (Estrogen receptor [6]): > 30 µM
AC50 [7]: > 30 µM
AC50 (Thromboxane A2 receptor [8]): > 30 µM
AC50 [9]: > 30 µM
AC50 (Thromboxane A2 receptor [10]): > 30 µM
AC50 (Estrogen receptor [11]): > 30 µM

— ChEMBL document CHEMBL5291721, “A preclinical secondary pharmacology resource illuminates target-adverse drug reaction associations of marketed drugs” (Nat Commun, 2023)
